Measurements taken from ChEMBL document CHEMBL5291721, “A preclinical secondary pharmacology resource illuminates target-adverse drug reaction associations of marketed drugs” (Nat Commun, 2023).

Columns and labels:
[1] = target: T1, Alpha-2C adrenergic receptor (Homo sapiens, UniProt P18825); type: functional
T1 sequence (P18825 whole entry): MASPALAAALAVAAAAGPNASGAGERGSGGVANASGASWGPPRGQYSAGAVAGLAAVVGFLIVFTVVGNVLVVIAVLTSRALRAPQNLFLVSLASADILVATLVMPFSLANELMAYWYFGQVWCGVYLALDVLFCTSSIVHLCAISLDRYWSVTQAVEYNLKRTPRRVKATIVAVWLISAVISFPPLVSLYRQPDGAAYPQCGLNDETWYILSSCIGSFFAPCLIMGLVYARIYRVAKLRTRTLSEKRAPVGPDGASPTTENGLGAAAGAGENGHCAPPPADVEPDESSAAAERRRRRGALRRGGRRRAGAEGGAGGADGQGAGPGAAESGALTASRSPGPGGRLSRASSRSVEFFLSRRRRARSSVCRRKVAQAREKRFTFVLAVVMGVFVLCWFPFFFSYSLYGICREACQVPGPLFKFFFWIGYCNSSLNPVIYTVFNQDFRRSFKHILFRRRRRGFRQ

Vasopressin V2 receptor = Vasopressin V2 receptor (Homo sapiens, UniProt P30518)
Chain of Vasopressin V2 receptor (P30518 whole entry): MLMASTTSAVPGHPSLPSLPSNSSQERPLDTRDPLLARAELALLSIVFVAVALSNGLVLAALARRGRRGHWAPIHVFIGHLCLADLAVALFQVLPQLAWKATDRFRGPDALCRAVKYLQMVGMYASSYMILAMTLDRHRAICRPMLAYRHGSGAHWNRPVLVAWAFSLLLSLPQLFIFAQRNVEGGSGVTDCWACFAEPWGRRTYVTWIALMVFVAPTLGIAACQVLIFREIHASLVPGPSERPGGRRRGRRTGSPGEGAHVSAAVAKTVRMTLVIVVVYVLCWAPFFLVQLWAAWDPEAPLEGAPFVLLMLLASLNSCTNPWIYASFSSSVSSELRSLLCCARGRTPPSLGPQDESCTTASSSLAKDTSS

[2] = target: T2, Muscarinic acetylcholine receptor M1 (Homo sapiens, UniProt P11229); type: functional
T2 sequence (P11229 whole entry): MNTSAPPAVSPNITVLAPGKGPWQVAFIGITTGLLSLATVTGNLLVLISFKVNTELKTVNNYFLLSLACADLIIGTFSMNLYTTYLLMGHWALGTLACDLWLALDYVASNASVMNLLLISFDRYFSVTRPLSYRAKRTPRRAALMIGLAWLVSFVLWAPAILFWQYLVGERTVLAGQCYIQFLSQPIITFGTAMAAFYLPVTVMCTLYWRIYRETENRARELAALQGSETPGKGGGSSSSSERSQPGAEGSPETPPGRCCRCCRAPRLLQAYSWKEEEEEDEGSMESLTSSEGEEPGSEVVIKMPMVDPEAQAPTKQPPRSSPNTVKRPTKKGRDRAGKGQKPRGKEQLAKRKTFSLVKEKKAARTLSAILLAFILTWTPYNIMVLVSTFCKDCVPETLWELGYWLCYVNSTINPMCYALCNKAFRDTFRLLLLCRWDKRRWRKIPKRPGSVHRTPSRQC

[3] = target: T3, Muscarinic acetylcholine receptor M2 (Homo sapiens, UniProt P08172); type: functional, cell-based
T3 sequence (P08172 whole entry): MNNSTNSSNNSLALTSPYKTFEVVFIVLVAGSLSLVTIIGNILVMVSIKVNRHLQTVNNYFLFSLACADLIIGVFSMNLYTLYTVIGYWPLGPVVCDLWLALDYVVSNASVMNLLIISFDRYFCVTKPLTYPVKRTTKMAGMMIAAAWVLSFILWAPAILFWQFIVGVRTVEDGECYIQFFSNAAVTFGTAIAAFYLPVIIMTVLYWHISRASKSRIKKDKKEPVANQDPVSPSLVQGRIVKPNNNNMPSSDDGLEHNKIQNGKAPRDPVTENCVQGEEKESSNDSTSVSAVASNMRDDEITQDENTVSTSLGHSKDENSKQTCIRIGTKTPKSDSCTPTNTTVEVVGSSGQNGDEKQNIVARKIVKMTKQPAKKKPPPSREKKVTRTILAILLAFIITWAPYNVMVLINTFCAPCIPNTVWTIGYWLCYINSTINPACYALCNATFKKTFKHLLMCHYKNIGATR

D(1A) dopamine receptor = D(1A) dopamine receptor (Homo sapiens, UniProt P21728); type: functional, cell-based
Chain of D(1A) dopamine receptor (P21728 whole entry): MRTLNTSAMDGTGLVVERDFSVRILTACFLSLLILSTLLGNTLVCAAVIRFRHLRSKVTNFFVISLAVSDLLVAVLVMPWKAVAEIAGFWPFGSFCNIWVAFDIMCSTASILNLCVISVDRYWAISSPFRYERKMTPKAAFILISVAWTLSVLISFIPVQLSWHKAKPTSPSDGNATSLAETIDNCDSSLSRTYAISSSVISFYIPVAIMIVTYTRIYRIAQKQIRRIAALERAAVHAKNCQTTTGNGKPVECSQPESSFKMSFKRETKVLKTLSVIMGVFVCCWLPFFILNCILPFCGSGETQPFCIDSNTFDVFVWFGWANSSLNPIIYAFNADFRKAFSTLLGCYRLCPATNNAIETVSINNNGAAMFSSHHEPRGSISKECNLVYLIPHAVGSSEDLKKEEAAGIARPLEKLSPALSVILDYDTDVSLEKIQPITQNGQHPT

[4] = target: T4, 5-hydroxytryptamine receptor 1A (Homo sapiens, UniProt P08908); type: functional, cell-based
T4 sequence (P08908 whole entry): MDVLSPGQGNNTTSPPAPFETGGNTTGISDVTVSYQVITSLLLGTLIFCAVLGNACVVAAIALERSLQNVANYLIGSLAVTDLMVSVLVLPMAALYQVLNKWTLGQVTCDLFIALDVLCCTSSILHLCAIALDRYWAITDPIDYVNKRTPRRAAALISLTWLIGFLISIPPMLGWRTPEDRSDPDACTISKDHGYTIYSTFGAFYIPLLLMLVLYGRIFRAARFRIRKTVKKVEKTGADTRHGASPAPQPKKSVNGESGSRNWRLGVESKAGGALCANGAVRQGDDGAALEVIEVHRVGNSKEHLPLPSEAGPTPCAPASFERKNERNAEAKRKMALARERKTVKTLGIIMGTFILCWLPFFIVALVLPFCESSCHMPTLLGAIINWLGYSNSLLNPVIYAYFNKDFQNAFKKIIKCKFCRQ

Progesterone receptor = target: T5, Progesterone receptor (Homo sapiens, UniProt P06401); type: functional
T5 sequence (P06401 whole entry): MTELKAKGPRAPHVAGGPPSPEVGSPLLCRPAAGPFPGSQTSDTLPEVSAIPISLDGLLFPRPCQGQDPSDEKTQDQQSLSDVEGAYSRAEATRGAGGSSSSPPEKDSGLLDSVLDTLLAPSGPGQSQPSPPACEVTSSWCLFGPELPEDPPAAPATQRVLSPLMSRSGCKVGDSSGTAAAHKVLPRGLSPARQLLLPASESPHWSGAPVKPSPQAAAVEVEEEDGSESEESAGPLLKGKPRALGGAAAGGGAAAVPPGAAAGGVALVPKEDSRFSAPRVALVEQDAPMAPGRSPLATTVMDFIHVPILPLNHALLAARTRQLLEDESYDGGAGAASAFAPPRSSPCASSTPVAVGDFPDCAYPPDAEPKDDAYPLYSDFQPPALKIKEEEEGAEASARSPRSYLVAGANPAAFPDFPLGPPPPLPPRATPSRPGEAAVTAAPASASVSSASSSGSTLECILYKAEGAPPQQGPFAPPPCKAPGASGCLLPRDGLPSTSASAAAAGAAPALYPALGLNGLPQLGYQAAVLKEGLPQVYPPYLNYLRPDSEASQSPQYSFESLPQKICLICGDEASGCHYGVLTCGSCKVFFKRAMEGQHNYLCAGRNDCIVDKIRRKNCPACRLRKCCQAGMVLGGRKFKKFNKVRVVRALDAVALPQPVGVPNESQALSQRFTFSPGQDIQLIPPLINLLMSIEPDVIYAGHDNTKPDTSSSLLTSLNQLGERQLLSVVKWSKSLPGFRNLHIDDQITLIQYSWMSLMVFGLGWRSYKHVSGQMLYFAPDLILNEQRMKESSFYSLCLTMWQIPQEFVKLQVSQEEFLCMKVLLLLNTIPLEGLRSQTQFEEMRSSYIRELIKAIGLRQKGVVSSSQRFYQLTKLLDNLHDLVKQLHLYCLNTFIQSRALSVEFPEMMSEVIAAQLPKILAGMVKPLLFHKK

Histamine H3 receptor = Histamine H3 receptor (Homo sapiens, UniProt Q9Y5N1)
Chain of Histamine H3 receptor (Q9Y5N1 whole entry): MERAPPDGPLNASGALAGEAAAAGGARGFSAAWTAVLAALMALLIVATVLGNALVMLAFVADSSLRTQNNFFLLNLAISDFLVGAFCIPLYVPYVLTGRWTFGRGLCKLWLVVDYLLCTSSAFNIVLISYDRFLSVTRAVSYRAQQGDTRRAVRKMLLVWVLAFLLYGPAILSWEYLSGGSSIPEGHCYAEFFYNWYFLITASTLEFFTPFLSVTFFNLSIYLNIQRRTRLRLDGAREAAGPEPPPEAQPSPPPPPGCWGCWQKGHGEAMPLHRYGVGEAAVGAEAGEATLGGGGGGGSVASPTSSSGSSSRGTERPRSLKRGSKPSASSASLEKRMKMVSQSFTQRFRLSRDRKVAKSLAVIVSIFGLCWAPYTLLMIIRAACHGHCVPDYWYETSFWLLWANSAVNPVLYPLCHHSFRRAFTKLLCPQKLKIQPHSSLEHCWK

[5] = target: Voltage-dependent L-type calcium channel subunit alpha-1C (Rattus norvegicus, UniProt P22002); type: functional
Chain of Voltage-dependent L-type calcium channel subunit alpha-1C (P22002 whole entry): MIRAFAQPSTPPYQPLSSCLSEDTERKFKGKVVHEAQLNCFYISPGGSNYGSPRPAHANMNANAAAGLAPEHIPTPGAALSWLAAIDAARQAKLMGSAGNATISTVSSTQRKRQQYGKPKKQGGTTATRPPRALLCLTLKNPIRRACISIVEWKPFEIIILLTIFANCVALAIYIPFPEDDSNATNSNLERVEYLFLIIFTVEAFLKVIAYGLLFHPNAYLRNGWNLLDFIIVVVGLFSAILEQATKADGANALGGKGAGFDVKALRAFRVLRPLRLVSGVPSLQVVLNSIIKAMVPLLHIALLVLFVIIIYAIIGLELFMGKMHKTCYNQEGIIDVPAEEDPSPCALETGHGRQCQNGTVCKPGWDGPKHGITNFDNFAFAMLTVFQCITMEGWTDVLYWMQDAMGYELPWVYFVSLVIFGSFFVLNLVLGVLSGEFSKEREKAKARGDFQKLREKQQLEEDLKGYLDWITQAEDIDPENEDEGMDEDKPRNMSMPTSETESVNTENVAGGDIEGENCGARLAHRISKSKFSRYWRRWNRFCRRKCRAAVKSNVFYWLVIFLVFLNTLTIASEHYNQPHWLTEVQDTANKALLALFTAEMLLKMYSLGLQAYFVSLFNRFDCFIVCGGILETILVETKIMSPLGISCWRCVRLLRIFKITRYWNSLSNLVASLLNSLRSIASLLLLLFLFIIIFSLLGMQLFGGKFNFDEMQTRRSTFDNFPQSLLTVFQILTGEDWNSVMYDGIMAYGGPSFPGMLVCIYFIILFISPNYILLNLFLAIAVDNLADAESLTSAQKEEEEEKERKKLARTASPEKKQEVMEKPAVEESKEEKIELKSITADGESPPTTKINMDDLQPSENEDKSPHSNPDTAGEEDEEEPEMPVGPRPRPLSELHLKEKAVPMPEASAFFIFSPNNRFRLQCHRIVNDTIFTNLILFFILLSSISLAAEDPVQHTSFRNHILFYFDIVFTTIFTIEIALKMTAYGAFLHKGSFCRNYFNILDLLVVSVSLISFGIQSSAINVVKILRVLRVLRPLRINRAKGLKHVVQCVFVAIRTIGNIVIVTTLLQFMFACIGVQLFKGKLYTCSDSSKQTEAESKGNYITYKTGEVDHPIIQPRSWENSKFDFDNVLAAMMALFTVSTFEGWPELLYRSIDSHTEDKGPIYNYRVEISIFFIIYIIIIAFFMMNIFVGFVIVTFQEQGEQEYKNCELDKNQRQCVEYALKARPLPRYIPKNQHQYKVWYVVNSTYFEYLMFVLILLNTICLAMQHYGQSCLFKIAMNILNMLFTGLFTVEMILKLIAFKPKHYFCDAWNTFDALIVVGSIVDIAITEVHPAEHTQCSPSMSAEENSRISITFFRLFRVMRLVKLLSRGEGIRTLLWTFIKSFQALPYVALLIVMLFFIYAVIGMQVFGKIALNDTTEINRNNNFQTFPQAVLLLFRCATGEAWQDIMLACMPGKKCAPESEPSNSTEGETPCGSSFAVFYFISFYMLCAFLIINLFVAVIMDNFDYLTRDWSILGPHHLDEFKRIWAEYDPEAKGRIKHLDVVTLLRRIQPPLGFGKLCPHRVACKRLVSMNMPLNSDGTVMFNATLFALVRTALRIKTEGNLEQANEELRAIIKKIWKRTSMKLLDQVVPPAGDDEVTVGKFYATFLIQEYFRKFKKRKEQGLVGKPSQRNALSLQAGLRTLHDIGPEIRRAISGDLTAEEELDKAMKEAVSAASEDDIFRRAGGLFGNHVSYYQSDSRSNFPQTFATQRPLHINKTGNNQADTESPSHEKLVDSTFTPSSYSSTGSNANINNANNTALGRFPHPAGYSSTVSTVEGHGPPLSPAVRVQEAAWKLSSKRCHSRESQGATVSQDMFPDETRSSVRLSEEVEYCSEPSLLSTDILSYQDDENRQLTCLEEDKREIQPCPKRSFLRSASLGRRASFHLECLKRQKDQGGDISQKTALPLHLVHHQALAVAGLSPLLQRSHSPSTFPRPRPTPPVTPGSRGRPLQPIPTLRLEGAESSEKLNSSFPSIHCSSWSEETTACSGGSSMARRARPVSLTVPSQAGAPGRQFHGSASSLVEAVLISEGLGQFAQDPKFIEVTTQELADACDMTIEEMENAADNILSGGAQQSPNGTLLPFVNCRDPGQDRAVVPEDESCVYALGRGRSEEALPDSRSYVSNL
Also: assay procedure not described here.

| SMILES | AC50 [1] [µM] | AC50 (Vasopressin V2 receptor) [µM] | AC50 [2] [µM] | AC50 [3] [µM] | AC50 (D(1A) dopamine receptor) [µM] | AC50 [4] [µM] | AC50 (Progesterone receptor) [µM] | AC50 (Histamine H3 receptor) [µM] | AC50 [5] [µM] |
| --- | --- | --- | --- | --- | --- | --- | --- | --- | --- |
| C=C1CC[C@@]2(O)[C@H]3Cc4ccc(O)c5c4[C@@]2(CCN3CC2CC2)[C@H]1O5 | > 30 | > 30 | > 30 | > 30 | > 30 | > 30 | > 30 | > 30 | – |
| CC(=O)OCC(=O)[C@@]12OC3(CCCC3)O[C@@H]1C[C@H]1[C@@H]3CCC4=CC(=O)C=C[C@]4(C)[C@@]3(F)[C@@H](O)C[C@@]12C [AMCINONIDE] | > 10 | > 10 | > 10 | > 10 | > 10 | > 10 | 0.212 | – | > 10 |
| CCCCCOC(=O)Nc1nc(=O)n([C@@H]2O[C@H](C)[C@@H](O)[C@H]2O)cc1F [CAPECITABINE] | > 30 | > 30 | > 30 | > 30 | > 30 | > 30 | > 30 | > 30 | – |
| CC(C)C(=O)OCC(=O)[C@@]12O[C@H](C3CCCCC3)O[C@@H]1C[C@H]1[C@@H]3CCC4=CC(=O)C=C[C@]4(C)[C@H]3[C@@H](O)C[C@@]12C [CICLESONIDE] | > 10 | > 10 | > 10 | > 10 | > 10 | > 10 | 7.1 | – | > 10 |
| CN1C(=O)CC(=O)N(c2ccccc2)c2cc(Cl)ccc21 [CLOBAZAM] | > 10 | > 10 | > 10 | > 10 | > 10 | > 10 | > 10 | – | > 10 |
| COC(=O)[C@H]1[C@@H](OC(=O)c2ccccc2)C[C@@H]2CC[C@H]1N2C [COCAINE] | > 30 | > 30 | > 30 | > 30 | > 30 | – | > 30 | > 30 | > 30 |
| CCCCOc1cc(C(=O)NCCN(CC)CC)c2ccccc2n1 [DIBUCAINE] | > 10 | > 30 | > 10 | > 10 | > 10 | > 10 | > 10 | – | > 10 |
| O=C1CN=C(c2ccccc2)c2cc(Cl)ccc2N1CC(F)(F)F [HALAZEPAM] | > 30 | > 30 | > 30 | > 30 | > 30 | > 30 | > 30 | > 30 | – |
| CCC1(C2=CCCCCC2)C(=O)NC(=O)NC1=O [HEPTABARBITAL] | > 10 | > 10 | > 10 | > 10 | > 10 | – | > 10 | > 10 | > 10 |
| O=C(CCCCC(=O)Nc1c(I)cc(I)c(C(=O)O)c1I)Nc1c(I)cc(I)c(C(=O)O)c1I [IODIPAMIDE] | > 10 | > 10 | > 10 | > 10 | > 30 | > 10 | > 10 | – | > 10 |
| COc1ccc(C(=O)NCc2ccc(OCCN(C)C)cc2)cc1OC [ITOPRIDE] | > 30 | > 30 | > 30 | > 30 | > 30 | – | > 30 | 19 | > 30 |
| O=C(O)Cc1cn(-c2ccccc2)nc1-c1ccc(Cl)cc1 [LONAZOLAC] | > 30 | > 30 | > 30 | > 30 | > 30 | – | > 30 | > 30 | > 30 |
| C[C@H]1C[C@@H]2[C@H]([C@@H](O)C[C@@]3(C)[C@H]2CC[C@]3(O)C(=O)COC(=O)CCC(=O)O)[C@@]2(C)C=CC(=O)C=C12 [METHYLPREDNISOLONE HEMISUCCINATE] | > 30 | > 30 | > 30 | > 30 | > 30 | > 30 | > 30 | > 30 | – |
| CCCCC(C)(O)C/C=C/[C@H]1[C@H](O)CC(=O)[C@@H]1CCCCCCC(=O)OC (some centres undefined) [MISOPROSTOL] | > 30 | > 30 | > 30 | > 30 | > 30 | > 30 | > 30 | > 30 | – |
| O=C(OCCN1CCOCC1)c1cccnc1Nc1cccc(C(F)(F)F)c1 [MORNIFLUMATE] | > 30 | > 30 | > 30 | > 30 | > 30 | – | > 30 | > 30 | > 30 |
| CCCCCCC(C)(C)c1cc(O)c2c(c1)OC(C)(C)C1CCC(=O)CC21 (centres undefined) [NABILONE] | > 30 | > 30 | > 30 | > 30 | > 30 | > 30 | > 30 | > 30 | – |
| CN1C(=O)CC(c2ccccc2)C1=O (centres undefined) [PHENSUXIMIDE] | > 10 | > 10 | > 10 | > 10 | > 10 | – | > 10 | > 10 | > 10 |
| Cc1nc2ccc(CN(C)c3ccc(C(=O)N[C@@H](CCC(=O)O)C(=O)O)s3)cc2c(=O)[nH]1 [RALTITREXED] | > 30 | > 30 | > 30 | > 30 | > 30 | – | > 30 | > 30 | > 30 |
